Test results taken from patent US20180099931A1 (AbbVie S.à.r.l., priority 2016, published 2018).
pEC50: −log10 of the molar value. Where two headings read alike, the source gives them in different places.

Target: T1, F508delCFTR (Homo sapiens, UniProt P13569, DEL508-508)
T1 construct: expressed in transfected cells; host or cells: CFBE41o- human lung-derived epithelial cells (CFBE4lo-F508delCFTR-HRP), doxycycline-inducible
Assay: Cell Surface Expression-Horse Radish Peroxidase (CSE-HRP) Assay;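 for Maximum % activity (with co-corrector): co-corrector and positive control are both the same reference corrector at 2 µM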;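 for Maximum % activity (without co-corrector): percent of the 2 µM on-plate positive control corrector response above DMSO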
Assay type: cell-based
Conditions: for Maximum % activity (with co-corrector) / Emax: maximum at any tested concentration, normalized to on-plate positive control; for Emax: read-out: Maximum % activity (without co-corrector)

[1] = CSE-HRP, test compound without co-corrector, read-out: EC50 (without co-corrector)
[2] = CSE-HRP, with co-corrector (2 μM of 3-[(2R,4R)-4-({[1-(2,2-difluoro-1,3-benzodioxol-5-yl)cyclopropyl]carbonyl}amino)-7-methoxy-3,4-dihydro-2H-chromen-2-yl]benzoic acid), read-out: EC50 (with co-corrector)
[3] = CSE-HRP, with co-corrector (2 μM)
[4] = test compound without co-corrector
[5] = test compound without co-corrector, read-out: EC50 (without co-corrector)
[6] = with co-corrector (2 μM of 3-[(2R,4R)-4-({[1-(2,2-difluoro-1,3-benzodioxol-5-yl)cyclopropyl]carbonyl}amino)-7-methoxy-3,4-dihydro-2H-chromen-2-yl]benzoic acid)
[7] = with co-corrector (2 μM of 3-[(2R,4R)-4-({[1-(2,2-difluoro-1,3-benzodioxol-5-yl)cyclopropyl]carbonyl}amino)-7-methoxy-3,4-dihydro-2H-chromen-2-yl]benzoic acid), read-out: EC50 (with co-corrector)

T1 sequence (P13569 with tags, fused parts or gaps DEL508-508): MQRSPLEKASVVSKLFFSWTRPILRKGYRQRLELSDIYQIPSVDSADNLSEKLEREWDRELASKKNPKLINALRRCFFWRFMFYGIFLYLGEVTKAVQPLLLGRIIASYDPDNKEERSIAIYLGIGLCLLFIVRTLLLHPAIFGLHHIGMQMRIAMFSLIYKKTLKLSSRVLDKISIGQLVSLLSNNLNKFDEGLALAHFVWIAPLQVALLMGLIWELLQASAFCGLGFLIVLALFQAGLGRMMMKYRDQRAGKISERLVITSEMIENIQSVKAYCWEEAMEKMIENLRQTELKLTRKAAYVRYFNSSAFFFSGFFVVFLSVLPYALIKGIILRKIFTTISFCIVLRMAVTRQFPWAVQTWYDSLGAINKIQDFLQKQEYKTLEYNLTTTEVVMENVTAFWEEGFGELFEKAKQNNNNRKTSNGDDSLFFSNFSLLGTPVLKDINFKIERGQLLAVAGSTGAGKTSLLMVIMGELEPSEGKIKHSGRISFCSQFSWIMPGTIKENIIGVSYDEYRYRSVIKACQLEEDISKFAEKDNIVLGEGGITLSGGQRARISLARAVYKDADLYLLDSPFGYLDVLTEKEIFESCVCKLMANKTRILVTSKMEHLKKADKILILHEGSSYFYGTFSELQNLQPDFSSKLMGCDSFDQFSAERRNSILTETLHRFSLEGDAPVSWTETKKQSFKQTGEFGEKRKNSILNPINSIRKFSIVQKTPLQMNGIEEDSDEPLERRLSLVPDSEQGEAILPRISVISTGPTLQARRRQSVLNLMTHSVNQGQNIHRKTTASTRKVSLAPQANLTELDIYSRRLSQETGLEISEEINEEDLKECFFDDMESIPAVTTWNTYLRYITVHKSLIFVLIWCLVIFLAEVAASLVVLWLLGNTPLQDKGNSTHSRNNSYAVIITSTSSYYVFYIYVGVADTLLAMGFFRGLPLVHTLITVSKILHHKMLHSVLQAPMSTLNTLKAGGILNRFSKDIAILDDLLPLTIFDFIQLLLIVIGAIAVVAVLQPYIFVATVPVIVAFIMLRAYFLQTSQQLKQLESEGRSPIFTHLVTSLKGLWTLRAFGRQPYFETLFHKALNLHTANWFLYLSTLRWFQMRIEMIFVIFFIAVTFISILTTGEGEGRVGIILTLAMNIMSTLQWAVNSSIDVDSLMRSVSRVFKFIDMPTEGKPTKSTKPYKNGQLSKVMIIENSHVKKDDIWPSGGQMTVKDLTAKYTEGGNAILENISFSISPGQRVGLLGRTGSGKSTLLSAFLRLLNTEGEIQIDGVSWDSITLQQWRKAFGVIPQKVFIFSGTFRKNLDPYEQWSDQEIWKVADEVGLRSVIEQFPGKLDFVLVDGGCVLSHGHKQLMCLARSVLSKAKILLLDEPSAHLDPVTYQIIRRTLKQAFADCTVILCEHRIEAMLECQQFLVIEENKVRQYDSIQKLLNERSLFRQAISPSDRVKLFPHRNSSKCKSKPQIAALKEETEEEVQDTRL

Row | Structure (SMILES) | pEC50 [1] | pEC50 [2] | Maximum % activity (with co-corrector) [3] | Emax (CSE-HRP, without co-corrector) [%] | Emax [4] [%] | pEC50 [5] | Maximum % activity (with co-corrector) [6] | pEC50 [7] | Maximum % activity (with co-corrector) (with co-corrector (2 μM)) | Emax (without co-corrector) [%]
1 | COc1nc(C(C)(C)C)ccc1CN[C@H]1[C@H](C(C)(C)C)[C@@H](C(=O)O)N(C(=O)[C@@H]2CCC[C@H](OC)C2)[C@H]1c1ccccc1 (relative stereo) [Example I-198] | – | – | – | – | – | 5.00 to 6.00 | – | 5.00 to 6.00 | +++ (≥350) | < 100
2 | COc1ncc(C(F)(F)F)cc1CN[C@H]1[C@H](C(C)(C)C)[C@@H](C(=O)O)N(C(=O)[C@@H]2CCCO2)[C@H]1c1ccccc1Br [Example I-292] | 5.00 to 6.00 | > 6.00 | +++ (≥350) | 100 to 200 | – | – | – | – | – | –
3 | COc1ncc(C(C)(C)C)cc1CN[C@H]1[C@H](C(C)(C)C)[C@@H](C(=O)O)N(C(=O)C2CCCCC2)[C@H]1c1ccc(F)cc1 [Example I-130] | – | – | – | – | – | > 6.00 | – | > 6.00 | +++ (≥350) | > 200
4 | COc1ccc(C(F)(F)F)cc1OCCN[C@H]1[C@H](C(C)(C)C)[C@@H](C(=O)O)N(C(=O)OC(C)C)[C@H]1c1cccnc1OC(C)C [Example I-309] | 5.00 to 6.00 | 5.00 to 6.00 | +++ (≥350) | 100 to 200 | – | – | – | – | – | –
5 | COc1ncc(C2CCC2)cc1CN[C@H]1[C@H](C(C)(C)C)[C@@H](C(=O)O)N(C(=O)[C@@H]2CCC[C@H](C(F)(F)F)C2)[C@H]1c1ccccc1 (relative stereo) [Example I-259] | 5.00 to 6.00 | 5.00 to 6.00 | +++ (≥350) | 100 to 200 | – | – | – | – | – | –
6 | COc1ncc(Cc2cccc(C#N)c2)cc1CN[C@H]1[C@H](C(C)(C)C)[C@@H](C(=O)O)N(C(=O)C2CCCCC2)[C@H]1c1ccccc1 [Example I-77] | – | – | – | – | – | 5.00 to 6.00 | – | 5.00 to 6.00 | +++ (≥350) | 100 to 200
7 | Cc1cc(C(F)(F)F)cc(N[C@H]2[C@@H](c3ccccc3)N(C(=O)C3CCCCC3)[C@@H](C(=O)O)C23CC3)n1 (racemic) [Example I-17] | – | – | – | – | – | 5.00 to 6.00 | – | 5.00 to 6.00 | ++ (≥150 and <350) | < 100
8 | COc1ccc(C(C)(C)C)cc1CN[C@H]1[C@H](C(C)(C)C)[C@@H](C(=O)O)N(C(=O)C2CCCCC2)[C@H]1c1cccnc1OC(F)F [Example I-225] | – | – | – | – | – | 5.00 to 6.00 | – | 5.00 to 6.00 | +++ (≥350) | 100 to 200
9 | CC(C)c1ccccc1[C@H]1[C@@H](NCc2cccc3c2OC(C)(C)C3)[C@H](C(C)(C)C)[C@@H](C(=O)O)N1C(=O)[C@@H]1CCCCO1 [Example I-306] | > 6.00 | > 6.00 | +++ (≥350) | > 200 | – | – | – | – | – | –
10 | COc1ccc(C(C)(C)C)cc1CN[C@H]1[C@H](C(C)(C)C)[C@@H](C(=O)O)N(C(=O)[C@@H]2CCCCO2)[C@H]1c1cccnc1OC [Example I-209] | – | – | – | – | – | 5.00 to 6.00 | – | 5.00 to 6.00 | +++ (≥350) | > 200

Results, then the compound that gave them:

Row | pEC50 [1] | pEC50 [2] | Maximum % activity (with co-corrector) [3] | Emax (CSE-HRP, without co-corrector) [%] | Emax [4] [%] | pEC50 [5] | Maximum % activity (with co-corrector) [6] | pEC50 [7] | Maximum % activity (with co-corrector) (with co-corrector (2 μM)) | Emax (without co-corrector) [%] | Structure (SMILES)
11 | 5.00 to 6.00 | 5.00 to 6.00 | +++ (≥350) | > 200 | – | – | – | – | – | – | COc1ccc(C(C)(C)C)cc1CN[C@H]1[C@H](C(C)(C)C)[C@@H](C(=O)O)N(C(=O)C2CC3C=CC2C3)[C@H]1c1ccccc1 (stereo partly shown) [II-211]
12 | – | – | – | – | 100 to 200 | > 6.00 | +++ (≥350) | > 6.00 | – | – | COc1ncc(-c2ccc(C)cc2)cc1CN[C@H]1[C@H](C(C)(C)C)[C@@H](C(=O)O)N(C(=O)C2CCCCC2)[C@H]1c1cccnc1N(C)C [II-410]
13 | – | – | – | – | 100 to 200 | 5.00 to 6.00 | +++ (≥350) | > 6.00 | – | – | COc1nc(C(C)(C)C)ccc1CN[C@H]1[C@H](C(C)(C)C)[C@@H](C(=O)O)N(C(=O)OC(C)C)[C@H]1c1cccnc1OC(C)C [II-557]
14 | 5.00 to 6.00 | > 6.00 | +++ (≥350) | > 200 | – | – | – | – | – | – | COc1ncc(C(C)C)cc1CN[C@H]1[C@H](C(C)(C)C)[C@@H](C(=O)O)N(C(=O)C2CCCCC2)[C@H]1c1ccccc1 [II-157]
15 | – | – | – | – | < 100 | 5.00 to 6.00 | ++ (≥150 and <350) | 5.00 to 6.00 | – | – | COc1ncc(C(F)(F)F)cc1CN[C@H]1[C@H](C(C)(C)C)[C@@H](C(=O)O)N(C(=O)[C@@H]2CCCO2)[C@H]1c1cccnc1C1CC1 [II-586]
16 | – | – | – | – | 100 to 200 | > 6.00 | +++ (≥350) | > 6.00 | – | – | COc1nc(C(C)(C)C)ccc1CN[C@H]1[C@H](C(C)(C)C)[C@@H](C(=O)O)N(C(=O)[C@H](OC)c2ccccc2)[C@H]1c1ccccc1 [II-433]
17 | – | – | – | – | > 200 | 5.00 to 6.00 | +++ (≥350) | 5.00 to 6.00 | – | – | COc1ccc(C2(C)CCC2)cc1CN[C@H]1[C@H](C(C)(C)C)[C@@H](C(=O)O)N(C(=O)[C@@H]2CCCCO2)[C@H]1c1ccccc1F [II-546]
18 | 5.00 to 6.00 | 5.00 to 6.00 | +++ (≥350) | 100 to 200 | – | – | – | – | – | – | COc1cc(C(F)(F)F)ccc1CN[C@H]1[C@H](C(C)(C)C)[C@@H](C(=O)O)N(C(=O)C2CCCCO2)[C@H]1c1cccnc1OC (relative stereo) [II-98]
19 | – | – | – | – | > 200 | 5.00 to 6.00 | +++ (≥350) | 5.00 to 6.00 | – | – | COc1ncc(C(F)(F)F)cc1CN[C@H]1[C@H](C(C)(C)C)[C@@H](C(=O)O)N(C(=O)OC(C)C)[C@H]1c1cccnc1N1CCC1 [II-592]
20 | – | – | – | – | < 100 | 5.00 to 6.00 | ++ (≥150 and <350) | 5.00 to 6.00 | – | – | COc1ccc(C(C)(C)C)cc1CN[C@H]1[C@H](C(C)(C)C)[C@@H](C(=O)O)N(C(=O)C2(c3cccc(Cl)c3)COC2)[C@H]1c1ccccc1 [II-497]
21 | > 6.00 | > 6.00 | +++ (≥350) | 100 to 200 | – | – | – | – | – | – | COc1ncc(CC2CCCCC2)cc1CN[C@H]1[C@H](C(C)(C)OC)[C@@H](C(=O)O)N(C(=O)C2CCCCC2)[C@H]1c1ccccc1 [II-253]
22 | – | – | – | – | < 100 | < 5.00 | ++ (≥150 and <350) | 5.00 to 6.00 | – | – | COc1cccc([C@H]2[C@@H](NCc3cc(C(F)(F)F)ccc3OC)[C@H](C(C)(C)C)[C@@H](C(=O)O)N2C(=O)C2(C)CCCOC2)n1 (relative stereo) [III-70]
23 | > 6.00 | > 6.00 | +++ (≥350) | > 200 | – | – | – | – | – | – | COc1ccc(-c2ccc(C)cc2)cc1CN[C@H]1[C@H](C(C)(C)C)[C@@H](C(=O)O)N(C(=O)C2CCCCC2)[C@H]1c1ccccc1 [II-249]
24 | – | – | – | – | < 100 | < 5.00 | ++ (≥150 and <350) | 5.00 to 6.00 | – | – | COc1ccc(C(F)(F)F)cc1CN[C@@H]1[C@@H](C(C)(C)C)[C@H](C(=O)O)N(C(=O)C(OC)c2ccccc2)[C@@H]1c1cccnc1N(C)C (relative stereo) [III-88]
25 | – | – | – | – | > 200 | 5.00 to 6.00 | +++ (≥350) | > 6.00 | – | – | COc1ccc(C23CC(C2)C3)cc1CN[C@H]1[C@H](C(C)(C)C)[C@@H](C(=O)O)N(C(=O)[C@H]2CCC[C@H](OC)C2)[C@H]1c1ccccc1 [II-516]
26 | – | – | – | – | 100 to 200 | 5.00 to 6.00 | +++ (≥350) | > 6.00 | – | – | COc1ccc(C(C)(C)C)cc1CN[C@H]1[C@H](C(C)(C)C)[C@@H](C(=O)O)N(C(=O)c2cnn(C(C)(C)C)c2C(F)(F)F)[C@H]1c1ccccc1 [II-360]
27 | – | – | – | – | < 100 | 5.00 to 6.00 | ++ (≥150 and <350) | 5.00 to 6.00 | – | – | COc1cc(OC)c(CN[C@@H]2[C@@H](C(C)(C)C)[C@H](C(=O)O)N(C(=O)C3CCCCC3)[C@@H]2c2ccccc2)cc1Cl (racemic) [III-20]
28 | > 6.00 | > 6.00 | +++ (≥350) | < 100 | – | – | – | – | – | – | COc1ccc(C(C)(C)C)cc1CN[C@H]1[C@H](C(C)(C)C)[C@@H](C(=O)O)N(C(=O)c2coc3ccccc23)[C@H]1c1ccccc1 [II-185]
29 | 5.00 to 6.00 | 5.00 to 6.00 | +++ (≥350) | < 100 | – | – | – | – | – | – | COc1ccccc1[C@@H]1[C@H](NCc2cc(C(F)(F)F)cnc2Cl)[C@@H](C(C)(C)C)[C@H](C(=O)O)N1C(=O)C1CCCCC1 (racemic) [II-16]
30 | – | – | – | – | < 100 | < 5.00 | ++ (≥150 and <350) | 5.00 to 6.00 | – | – | CCS(=O)(=O)NC(=O)[C@H]1[C@H](C(C)(C)C)[C@@H](Nc2cc(C(F)(F)F)cc(C)n2)[C@@H](c2ccccc2)N1C(=O)C1CCCCC1 (racemic) [III-53]
31 | – | – | – | – | < 100 | < 5.00 | – | 5.00 to 6.00 | ++ (≥150 and <350) | – | Cc1cc(C(F)(F)F)cc(N[C@@H]2[C@@H](C(C)(C)C)[C@H](C(=O)O)N(C(=O)C3CCC(F)(F)CC3)[C@@H]2c2ccccc2)n1 (racemic) [III-104]
